Results taken from PMC9312958, “A Novel and Selective Dopamine Transporter Inhibitor, (S)-MK-26, Promotes Hippocampal Synaptic Plasticity and Restores Effort-Related Motivational Dysfunctions” (Biomolecules, 2022).

Columns and labels:
hNET = target: T1, hNET (Homo sapiens, UniProt P23975); experiment: Uptake inhibition assay in HEK293 cells expressing hNET; assay type: cell-based
T1 construct: expressed in transfected cells
Method: (§1) Human embryonic kidney 293 cells (HEK293 cells) were cultivated in Dulbecco’s Modified Eagle Medium (DMEM), containing 10% heat-inactivated fetal calf serum (FCS; 100 mL/L), streptomycin (100 μg/100 mL) and penicillin ([…]). Geneticin (50 μg/mL) was added to select cells stably expressing the human isoforms of dopamine, norepinephrine and serotonin transporter (hDAT, hNET, and hSERT, respectively) as described earlier. Cell lines were maintained in culture in humidified atmosphere (37 °C, 5% CO2), and passaged when reached 80–90% confluency. Cells expressing the desired transporter were seeded the day before the experiment (40,000 cells per well) or two days before the experiments (20,000 cells per well) onto poly-D-lysine (PDL)-coated 96-well plates.
Uptake inhibition experiments were carried out as reported previously. Ninety-six-well plates containing hDAT-, hNET- or hSERT-expressing cells were washed with Krebs-HEPES buffer (KHB; 25 mM HEPES, 120 mM NaCl, 5 mM KCl, 1.2 mM CaCl2, and 1.2 mM MgSO4 and 5 mM D-glucose, pH = 7.3). Cells were then preincubated with increasing concentrations of the compound diluted in KHB for 6 min. Following the pre-incubation of the cells with the compound, the tritiated substrate (hDAT: 0.15 μM [^3H]DA; hNET: 0.05 μM [^3H]MPP^+; hSERT: 0.1 μM [^3H]5-HT) was added to the wells. The uptake was terminated by removal of tritiated substrate and by washing the cells with ice-cold KHB after 1 min (for hDAT and hSERT) or 3 min (for hNET). Thereafter, 200 μL of Ultima Gold^TM XR scintillation cocktail (PerkinElmer, MA, USA) was added, the plates were shaken and the radioactivity accumulated into the cells determined in a Wal-lac 1450 MicroBeta TriLux Liquid Scintillation Counter & Lumi (GMI, Ramsey, MN, USA). Non- specific tritiated substrate uptake was measured in the presence of 100 μM cocaine (for hDAT and hNET) or 10 μM paroxetine (for hSERT), and subtracted from the data. Uptake in the presence of test drugs was normalized to the uptake in the presence of the vehicle.

hSERT [1] = target: T2, hSERT (Homo sapiens, UniProt P31645); experiment: Uptake inhibition assay in HEK293 cells expressing hSERT; assay type: cell-based
T2 construct: expressed in transfected cells
T2 sequence (P31645 whole entry): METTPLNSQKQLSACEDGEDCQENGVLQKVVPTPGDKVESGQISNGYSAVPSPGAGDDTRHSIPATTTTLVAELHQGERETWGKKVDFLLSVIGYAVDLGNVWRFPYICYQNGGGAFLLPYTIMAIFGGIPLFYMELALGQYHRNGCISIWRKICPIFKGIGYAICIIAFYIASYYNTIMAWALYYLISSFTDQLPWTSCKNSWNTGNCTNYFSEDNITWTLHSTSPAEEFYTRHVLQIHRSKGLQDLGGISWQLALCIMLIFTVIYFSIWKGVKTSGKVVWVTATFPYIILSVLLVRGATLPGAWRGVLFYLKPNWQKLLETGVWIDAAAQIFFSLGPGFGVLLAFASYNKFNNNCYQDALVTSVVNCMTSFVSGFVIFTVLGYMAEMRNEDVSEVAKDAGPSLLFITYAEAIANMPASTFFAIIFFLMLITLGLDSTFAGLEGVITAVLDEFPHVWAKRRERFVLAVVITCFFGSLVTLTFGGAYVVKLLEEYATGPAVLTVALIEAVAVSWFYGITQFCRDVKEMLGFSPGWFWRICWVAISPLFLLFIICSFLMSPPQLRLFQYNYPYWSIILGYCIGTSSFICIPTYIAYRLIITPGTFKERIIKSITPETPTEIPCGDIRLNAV
Method: as §1
Uptake inhibition experiments were carried out as reported previously. […] Thereafter, 200 μL of Ultima Gold^TM XR scintillation cocktail (PerkinElmer, MA, USA) was added, the plates were shaken and the radioactivity accumulated into the cells determined in a Wal-lac 1450 MicroBeta TriLux Liquid Scintillation Counter & Lumi (GMI, Ramsey, MN, USA). Non- specific tritiated substrate uptake was measured in the presence of 100 μM cocaine (for hDAT and hNET) or 10 μM paroxetine (for hSERT), and subtracted from the data. […]

hSERT [2] = target: T2, hSERT; experiment: hSERT radioligand binding assay (CHO cells, [3H]imipramine)
Method: Binding affinity to the hDAT, hNET and hSERT expressed in CHO cells was evaluated in in vitro radioligand binding assays. Binding assays were conducted according to the standard and validated protocols under conditions defined by the contractor (Eurofins Cerep SA, Celle-’Evescault, France; study number 100054410). Antagonist radioligand assays were conducted for the human norepinephrine, the human dopamine, and the serotonin transporters (using CHO cells), using [^3H]nisoxetine (1 nM), [^3H]BTCP (4 nM), and [^3H]imipramine (2 nM) as ligands and desipramine (1 µM), BTCP (10 µM), and imipramine (10 µM) as non-specific agents, respectively (with scintillation counting as detection method).

[3] = test system: adult male Sprague Dawley rats; experiment: PROG/chow feeding choice task; assay type: in vivo, rat
Method: Pharmacological agents: (S)-MK-26 was obtained from the Lubec Laboratory (University of Vienna, Austria) and dissolved in dimethyl sulfoxide (DMSO) (10%), Tween 80 (15%), and 0.9% saline (75%). The DMSO/Tween 80/saline mixture was administered as the vehicle control. The dose range was selected as 3.75–45.0 mg/kg based on its DAT affinity and pilot studies. It was administered 30 min before testing. TBZ (9,10-dimethoxy3-(2-methylpropyl)-1,3,4,6,7, 11b hexahydrobenzo[a]quinolizin2-one) was obtained from Tocris Bioscience (Ellisville, MO) and was dissolved in DMSO (20%) and 0.9% saline (80%) and was titrated with 1.0 N HCl until the drug was dissolved at a pH of 4.0–4.5. The DMSO/saline solution with equal amounts of HCl was administered as the vehicle control. The selected dose was 1.0mg/kg based on the previous research from our laboratory. It was administered 120 min prior to testing. […]
Behavioral sessions were conducted in operant chambers (28 × 23 × 23 cm^3; Med Associates, Fairfax, VT) with 30 min sessions 5 days/week. […] The number of lever pressing was recorded and the amount of consumed chow was calculated by weighing the remaining food, including spillage. […]

T1 sequence (P23975 whole entry): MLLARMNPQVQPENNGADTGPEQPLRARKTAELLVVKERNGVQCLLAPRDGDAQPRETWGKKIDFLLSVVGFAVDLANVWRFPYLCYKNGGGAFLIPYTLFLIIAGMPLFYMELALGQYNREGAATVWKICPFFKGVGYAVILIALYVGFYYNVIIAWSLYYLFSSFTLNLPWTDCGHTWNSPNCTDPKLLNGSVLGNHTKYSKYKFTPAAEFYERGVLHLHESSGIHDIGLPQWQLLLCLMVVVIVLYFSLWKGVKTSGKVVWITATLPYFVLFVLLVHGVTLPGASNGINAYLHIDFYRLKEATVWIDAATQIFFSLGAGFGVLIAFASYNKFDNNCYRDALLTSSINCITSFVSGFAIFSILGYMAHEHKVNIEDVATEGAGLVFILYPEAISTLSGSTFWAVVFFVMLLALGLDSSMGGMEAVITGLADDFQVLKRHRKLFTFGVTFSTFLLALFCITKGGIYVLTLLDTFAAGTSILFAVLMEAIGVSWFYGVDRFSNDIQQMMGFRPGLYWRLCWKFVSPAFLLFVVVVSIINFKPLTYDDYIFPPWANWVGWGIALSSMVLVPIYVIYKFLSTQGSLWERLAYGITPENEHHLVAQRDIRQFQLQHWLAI

With [O-][S@@+](Cc1cncs1)C(c1cccc(Cl)c1)c1cccc(Cl)c1 [(S)-MK-26, (S)-5-(((B(3-chlorophenyl)methyl)sulphinyl)methyl)thiazole] the IC50 (hNET) was 63.5 µM, the IC50 (hSERT [1]) was > 1 mM and the “binding to SERT” value (hSERT [2]) was “trifling bindings”. For the same compound, the “effect on PROG lever presses” value ([3]; 45.0 mg/kg i.p. alone vs vehicle, p = 0.011) was “statistically significant difference between the vehicle and the highest dose” and the “effect on chow intake” value ([3]; 30.0 and 45.0 mg/kg i.p. alone vs vehicle) was “decreased chow intake”.
